According to patent US8252801B1, “Treatment of schizophrenia and related disorders” (Abbott Laboratories, priority 2009, dated 2012):
Where two headings read alike, the source gives them in different places.

Tests used:
[1] = cited from earlier work
Male Sprague Dawley rats = assay: Catalepsy (bar test), Compound A in combination with risperidone; assay type: in vivo, rat; conditions: Compound A 0.1 or 1.0 mg/kg i.p. 10 min prior to risperidone 2.5 mg/kg i.p.; total catalepsy over 60-240 min; FIG. 3
Protocol: Animals: Male Sprague Dawley rats (CRL: CD (SD), Charles River Laboratories, Omaha, Nebr., USA) weighing 300-325 g were used for the experiment. They were housed under standard conditions in groups of 4 rats on a 12 h light/dark cycle (lights on at 0600 h) with ad libitum access to food and water. Preparation of Compounds: 2-{4′-[(3aR,6aR)-5-Methylhexahydropyrrolo[3,4-b]pyrrol-1(2H)-yl]-1,1′-biphenyl-4-yl}pyridazin-3(2H)-one (Compound A) and risperidone were solubilized as described above, and were administered in solution in a volume of 1.0 ml/kg body weight. Experimental Procedure: Rats were handled and habituated to the testing room before starting. […] The degree of catalepsy was measured by gently placing both forepaws over a metal bar (1.1 cm. diameter suspended 8 cm. above the table top). The time in seconds until the rat took both paws off the bar was recorded, with a maximum cut-off of 300 seconds. […] At least 5 trials were attempted on each rat with 5 seconds used as a low-end cut-off for catalepsy (time scored as zero). For catalepsy times between 5-15 seconds, the highest time of 5 trials was recorded. Alternately, any catalepsy trial time that was greater than 15 seconds (up to 300 seconds) was recorded. Statistics: Data for the 4 times points were summed across the session, and the total catalepsy scores were analyzed using a one-way analysis of variance (ANOVA). […]

Male DBA/2J mice [2] = assay: Prepulse inhibition (PPI) model, Compound A alone; assay type: in vivo, mouse; conditions: Compound A alone at 0.01, 0.1 and 1.0 mg/kg i.p., 30 min before testing; FIG. 1
Excerpt: Dysfunctions of sensory gating and information processing have been putatively associated with clinical features such as perpetual aberrations, hallucinations and distraction and been considered as potential precursors of sensory overload, cognitive fragmentation and disorganization. Among the physiological measures, one approach has involved the startle reflex with the prepulse inhibition (PPI) paradigm. […] PPI refers to a reduction in the acoustic startle reflex to a loud noise when the loud noise is preceded by a weak auditory stimulus. At short lead intervals, this has the effect of markedly reducing or gating the amplitude of the startle response and increasing its latency. Disruption of PPI occurs with agonists of dopamine and serotonin, and with glutamate/N-methyl D aspartate (NMDA) receptor antagonists, or can be induced by genetic (e.g., DBA2 mouse strain) and experimental manipulations (e.g., rearing rats in isolation, neurotoxic lesions, or other methods). […] (Olivier B., et al., Psychopharmacology (2001) vol. 156:284-290; Ouagazzal A-M., Psychopharmacology (2001) vol. 156:273-283; Simosky J. K., Psychopharmacology (2003) vol. 165:386-396). […]
Animals: Male DBA/2J mice (Jackson Labs AX9 facility, Bar Harbor, Me., USA) at age 6-8 weeks old were used. […] Experimental Procedure: Startle response and PPI were measured using startle chambers from Hamilton Kinder (Poway, Calif., USA). […]

Male DBA/2J mice [3] = assay: Prepulse inhibition (PPI) model, Compound A on a subefficacious dose of risperidone; assay type: in vivo, mouse; conditions: FIG. 2
Protocol: Animals: Male DBA/2J mice (Jackson Labs AX9 facility, Bar Harbor, Me., USA) at age 6-8 weeks old were used. They were housed under standard facility conditions in groups of eight on a 12 h light/dark cycle (lights on at 0600 h) with ad libitum access to food and water. Chemicals: 2-{4′-[(3aR,6aR)-5-Methylhexahydropyrrolo[3,4-b]pyrrol-1(2H)-yl]-1,1′-biphenyl-4-yl}pyridazin-3(2H)-one was prepared at Abbott Laboratories; risperidone (3-[2-[4-(6-fluoro-1,2-benzisoxazol-3-yl)-1-piperidinyl]ethyl]-6,7,8,9-tetrahydro-2-methyl-4H-pyridol[1,2-a]pyrimidin-4-one, MW 410.5) was obtained from ICN Biomedicals Inc. (Aurora, Ohio, USA). […] Experimental Procedure: Startle response and PPI were measured using startle chambers from Hamilton Kinder (Poway, Calif., USA). […] In the startle alone trials, the amount of PPI was calculated as a percentage score for each acoustic prepulse trial type using (typically) the formula: […]. Statistics: Data were analyzed using a one-way ANOVA. All post hoc significance was determined using Dunnett's multiple comparison test (p<0.05 was regarded as significance). […]
Statistics: Data were analyzed using a one-way ANOVA. All post hoc significance was determined using Dunnett's multiple comparison test (p<0.05 was regarded as significance).

[4] = clinical use, Table 1, hyperprolactinaemia
[5] = clinical use, Table 1, sexual dysfunction

For CN1CCN(C2=Nc3cc(Cl)ccc3Nc3ccccc32)CC1 [Clozapine, 8-chloro-11-(4-methyl-1-piperazinyl)-5H-dibenzo[b,e][1,4]diazepine], the “Dose of Increased Side Effect Risk (low risk for seizures)” value ([1]; Table 2) is listed as under 300 mg/day and the “Dose of Increased Side Effect Risk (moderate risk for seizures)” value ([1]; Table 2) is listed as 300 to 599 mg/day.

In the case of O=C1CCc2ccc(OCCCCN3CCN(c4cccc(Cl)c4Cl)CC3)cc2N1 [Arpiprazole], the “Dose of Increased Side Effect Risk (somnolence), in words” value ([1]; Table 2) is listed as “dose dependent” and the “Other Dose Related Side Effects” value ([1]; clinical use, Table 1) is listed as “somnolence”.

In the case of O=C1Cc2cc(CCN3CCN(c4nsc5ccccc45)CC3)c(Cl)cc2N1 [Ziprasidone, 5-[2-[4-(1,2-benzoisothiazol-3-yl)-1-piperazinyl]ethyl]-6-chloro-1,3-dihydro-2H-indol-2-one], the “Dose of Increased Side Effect Risk (EPS risk)” value ([1]; Table 2) is given as over 80 mg/day and the “EPS risk: dose of augmented risk” value ([1]; clinical use, Table 1) is given as “risk >80 mg/kg/day”.

In the case of O=C(CCCN1CCC(O)(c2ccc(Cl)cc2)CC1)c1ccc(F)cc1 [Haloperidol, 4-(4-chlorophenyl)-1-[4-(4-fluorophenyl)-4-oxobutyl]-4 piperidinyl], the “Dose of Increased Side Effect Risk” value ([1]; Table 2, risk for EPS) is given as about 3 mg, the “Other Dose Related Side Effects” value [1, 4] is given as “hyper-” and the “Other Dose Related Side Effects” value [1, 5] is given as “sexual”.

For CN1C[C@H]2CCN(c3ccc(-c4ccc(-n5ncccc5=O)cc4)cc3)[C@H]2C1 [Compound A, 2-{4′-[(3aR,6aR)-5-methylhexahydropyrrolo[3,4-b]pyrrol-1(2H)-yl]-1,1′-biphenyl-4-yl}pyridazin-3(2H)-one], the “cataleptic behavior of risperidone when administered in combination” value (Male Sprague Dawley rats) was “did not significantly alter cataleptic behavior”, the PPI responding (Male DBA/2J mice [2]) was “did not significantly alter PPI responding” and the “efficacy of risperidone (0.1 mg/kg) in PPI in combination with 0.1 mg/kg Compound A” value (Male DBA/2J mice [3]; 0.1 mg/kg Compound A + 0.1 mg/kg risperidone, comparable to 1.0 mg/kg risperidone) was “attained maximal efficacy”. The “efficacy of risperidone (0.1 mg/kg) in PPI in the presence of Compound A” value (Male DBA/2J mice [3]; Compound A 0.01, 0.1 or 1.0 mg/kg i.p. 35 min, risperidone 0.1 mg/kg 25 min prior to testing) was “more efficacious”.

For Cc1nc2n(c(=O)c1CCN1CCC(c3noc4cc(F)ccc34)CC1)CCCC2 [Risperidone, 3-[2-[4-(6-fluoro-1,2-benzisoxazol-3-yl)piperidino]ethyl]-2-methyl-6,7,8,9-tetrahydro-4H-pyrido-[1,2-a]pyrimidin-4-one], the “Dose of Increased Side Effect Risk (EPS risk)” value ([1]; Table 2) is given as “≧6 mg/day”, the “Other Dose Related Side Effects” value [1, 4] is given as “hyper-” and the “Other Dose Related Side Effects” value [1, 5] is given as “sexual”.
